For series [1] the following is noted: digoxin 0.5 mg alone (placebo).
Source text: (§1) This was a single-center, randomized, single-blind, placebo-controlled study in 18 healthy subjects. Two groups of subjects were studied in a 4-treatment, 2-sequence, and crossover design. The study was comprised of a screening period, a treatment period, and a follow-up period (approximately 10-13 days following the last test condition). Subjects were randomized in a 1:1 ratio to one of 2 sequences (i.e., Group 1 or 2) of 4 test conditions (i.e., A-D) as shown in Table 1.
A short description of series [2]: clinical. As to conditions: human, plasma; for AUC(0-t): AUC(0-12).
Source text: as §1
Series [3] can be described thus: clinical. As to conditions: human, in vivo; for AUC(0-t): AUC(0-12).
The mark [4] stands for this setting: oral, least squares geometric mean, digoxin alone (second geometric-mean column; no unit printed in Table 7).
The mark [5] stands for this setting: least squares geometric mean, Reference.
Setting [6] is: least squares geometric mean, Test.

SMILES strings stand for the structures.

The term Tmax denotes the time from dosing to the highest level. In general, AUC(0-t) refers to exposure summed from dosing to a finite time, without extrapolation to infinity. Lower therefore signals low exposure. Usually Cmax stands for the maximum level reached in the sampled fluid or tissue. In the case of `C[C@H]1O[C@@H](O[C@H]2[C@@H](O)C[C@H](O[C@H]3[C@@H](O)C[C@H](O[C@H]4CC[C@@]5(C)[C@H](CC[C@@H]6[C@@H]5C[C@@H](O)[C@]5(C)[C@@H](C7=CC(=O)OC7)CC[C@]65O)C4)O[C@@H]3C)O[C@@H]2C)C[C@H](O)[C@@H]1O` [Digoxin, digoxin], the “Tmax, median” value in series [1] came out at 1 h. In addition, in series [2] (oral), the Tmax was 3 h. Also, the AUC(0-t) was 9.14 ± 2.03 ng·h/mL in series [2] (oral, 0.5 mg, mean ± SD, digoxin 0.5 mg alone (placebo)) and 8.91 ng·h/mL in series [2] (setting [4]). Further, the Cmax in series [2] (setting [4]) was 2.38 ng/mL; in series [2] (po, mean ± SD, digoxin 0.5 mg oral single dose alone (placebo; lisinopril 20 mg co-administered)) it was 2.5 ± 0.71 ng/mL.
Regarding `NCCCC[C@H](N[C@@H](CCc1ccccc1)C(=O)O)C(=O)N1CCC[C@H]1C(=O)O` [Lisinopril, lisinopril], in series [3], the AUC0-12 increase was determined as 40%, the Cmax increase is 50%, the Tmax worked out at 7 h and the “change in the rate of absorption (from Tmax)” value is on record as “no apparent change”. In series [3], the “individual decreases in AUC0-12, 3 of 17 subjects” value is listed as 6.17-16.1%; the “individual increases in AUC0-12, remaining 14 subjects” value is 2.98-140%; the “share of the 14 subjects with an increase in AUC0-12 that had an increase 25% (11 subjects)” value was determined as 79%. Besides, in series [3] (20 mg), the Tmax was 7.5 h. In series [3] (20 mg, mean ± SD), this compound had an AUC(0-t) of 690 ± 207 ng·h/mL. In series [3] (setting [5]), this compound showed an AUC(0-t) of 661 ng·h/mL and a Cmax of 83.6 ng/mL. In series [3] (setting [6]), this compound registered an AUC(0-t) of 923 ng·h/mL and a Cmax of 126 ng/mL.

For the origin of these results see US20220202911A1 (Amryt Endo, Inc., priority 2020, published 2022).
